US20250059205A1, “Heterocyclic Compounds and Methods of Use” (AMGEN INC., priority 2021, published 2025)

Columns and labels:
[1] = system: Phosphorylation of ERK1/2 in AsPC-1 cells; test: Phospho-ERK1/2 MSD Assay (AsPC-1 cells); format: cell-based; conditions: Homo sapiens, ASPC1, 2 h, 2 hours treatment, read-out: p-ERK (AsPC-1 cells) IC50
Outline: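 Read-out: MSD electrochemiluminescent detection of phosphorylated ERK1/2 in whole-cell lysates, fitted to a 4-parameter logistic curve for IC50. Prior to lysis, AsPC-1 cells (25,000 per well) received a 2 h compound dose-response at 37 °C.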

[2] = molecular target: His-tagged KRAS G12D protein (Homo sapiens, UniProt P01116, G12D); test: KRAS G12D TR-FRET Assay; format: binding
Chain of His-tagged KRAS G12D protein (P01116 1-188 isoform P01116-2 G12D): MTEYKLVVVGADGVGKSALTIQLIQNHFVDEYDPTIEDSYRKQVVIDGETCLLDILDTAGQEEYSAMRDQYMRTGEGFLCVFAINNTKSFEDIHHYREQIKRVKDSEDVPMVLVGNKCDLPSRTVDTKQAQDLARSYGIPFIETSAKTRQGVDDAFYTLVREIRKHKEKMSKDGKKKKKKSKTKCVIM

[3] = molecular target: GDP-bound KRAS protein (aa 1-169), containing both G12D and C118A amino acid substitutions (Homo sapiens, UniProt P01116, C118A/G12D); test: KRAS G12D Coupled Nucleotide Exchange Assay; format: biochemical; conditions: 2 h compound pre-incubation
Chain of GDP-bound KRAS protein (aa 1-169), containing both G12D and C118A amino acid substitutions (P01116 1-169 isoform P01116-2 G12D/C118A): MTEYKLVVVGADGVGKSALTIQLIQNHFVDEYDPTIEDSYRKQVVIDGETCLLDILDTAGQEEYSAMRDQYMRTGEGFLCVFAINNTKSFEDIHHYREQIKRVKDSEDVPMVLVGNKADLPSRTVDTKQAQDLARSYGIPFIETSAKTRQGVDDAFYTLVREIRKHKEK
Experimental: Following compound pre-incubation, purified SOS protein (aa 564-1049) and GTP (Roche 10106399001) were added to the assay wells and incubated for an additional 30 min. […] The assay plates were then read on a PerkinElmer EnVision Multilabel Reader, using AlphaScreen® technology, and data were analyzed using a 4-parameter logistic model to calculate IC50 values.

[4] = system: Phosphorylation of ERK1/2 in A-427 cells; test: Phospho-ERK1/2 MSD Assay (A-427 cells); format: cell-based; conditions: Homo sapiens, A-427, 2 h, 2 h treatment, read-out: p-ERK (A427 cells) IC50
Outline: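 ERK1/2 phosphorylation measured by Meso Scale whole-cell lysate assay after A-427 cells were exposed to a titration of compound for 2 h at 37 °C.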

Row | SMILES | IC50 [1] [µM] | IC50 [2] [µM] | Avg 2 h Coupled Exchange IC50 [3] [µM] | IC50 [4] [µM]
1 | CCc1c(F)ccc2cccc(-c3c(F)cc4c(N5C[C@H]6CC[C@@H](C5)N6)nc(OC[C@@]56CCCN5C[C@H](F)C6)nc4c3F)c12 [Example 69, 4-((1R,5S)-3,8-diazabicyclo[3.2. 1]octan-3-yl)-7-(8-ethyl-7-fluoronaphthalen-1-yl)-6,8-difluoro-2-(((2R,7aS)-2-fluorotetrahydro-1H-pyrrolizin-7a(5H)-yl)methoxy) quinazoline] | 0.514 | 0.004 | 0.002 | 1
2 | Oc1cc(-c2c(F)cc3c(N4C[C@H]5CC[C@@H](C4)N5)nc(OC[C@@]45CCCN4C[C@H](F)C5)nc3c2F)c2c(Cl)cccc2c1 [Example 70, 4-(4-((1R,5S)-3,8-diazabicyclo[3.2. 1]octan-3-yl)-6,8-difluoro-2-(((2R,7aS)-2-fluorotetrahydro-1H-pyrrolizin-7a(5H)-yl)methoxy)quinazolin-7-yl)-5-chloronaphthalen-2-ol] | 0.049 | 0.003 | 0.007 | 0.012
3 | CCc1cccc2cccc(-c3c(Cl)cc4c(N5C[C@H]6CC[C@@H](C5)N6)nc(OC[C@@]56CCCN5C[C@H](F)C6)nc4c3F)c12 [Example 71, 4-((1R,5S)-3,8-diazabicyclo[3.2. 1]octan-3-yl)-6-chloro-7-(8-ethylnaphthalen-1-yl)-8-fluoro-2-(((2R,7aS)-2-fluorotetrahydro-1H-pyrrolizin-7a(5H)-yl)methoxy) quinazoline] | 3.36 | 0.038 | 0.05 | 4.79
4 | CCc1cccc2cccc(-c3cc4nc(OC[C@@]56CCCN5C[C@H](F)C6)nc(N5C[C@H]6CC[C@@H](C5)N6)c4cc3F)c12 [Example 72, 4-((1R,5S)-3,8-diazabicyclo[3.2. 1]octan-3-yl)-7-(8-ethylnaphthalen-1-yl)-6-fluoro-2-(((2R,7aS)-2-fluorotetrahydro-1H-pyrrolizin-7a(5H)-yl)methoxy) quinazoline] | 2.6 | 0.023 | 0.018 | 2.68
5 | Cc1c(Cl)cc2[nH]ncc2c1-c1c(Cl)cc2c(N3C[C@H]4CC[C@@H](C3)N4)nc(OC[C@@]34CCCN3C[C@H](F)C4)nc2c1F [Example 73, 4-((1R,5S)-3,8-diazabicyclo[3.2. 1]octan-3-yl)-6-chloro-7-(6-chloro-5-methyl-1H-indazol-4-yl)-8-fluoro-2-(((2R,7aS)-2-fluorotetrahydro-1H-pyrrolizin-7a(5H)-yl)methoxy) quinazoline] | 0.715 | 0.015 | 0.017 | 0.422
6 | Cc1c(Cl)cc2[nH]ncc2c1-c1c(F)cc2c(N3C[C@H]4CC[C@@H](C3)N4)nc(OC[C@@]34CCCN3C[C@H](F)C4)nc2c1F [Example 74, 4-((1R,5S)-3,8-diazabicyclo[3.2. 1]octan-3-yl)-7-(6-chloro-5-methyl-1H-indazol-4-yl)-6,8-difluoro-2-(((2R,7aS)-2-fluorotetrahydro-1H-pyrrolizin-7a(5H)-yl)methoxy) quinazoline] | 0.386 | 0.007 | 0.007 | 0.148
7 | Cc1cc2[nH]ncc2c(-c2c(F)cc3c(N4C[C@H]5CC[C@@H](C4)N5)nc(OC[C@@]45CCCN4C[C@H](F)C5)nc3c2F)c1Cl [Example 75, 4-((1R,5S)-3,8-diazabicyclo[3.2. 1]octan-3-yl)-7-(5-chloro-6-methyl-1H-indazol-4-yl)-6,8-difluoro-2-(((2R,7aS)-2-fluorotetrahydro-1H-pyrrolizin-7a(5H)-yl)methoxy) quinazoline] | 0.297 | 0.005 | 0.003 | 0.139
8 | Cc1ccc2cnn(C)c2c1-c1c(Cl)cc2c(N3C[C@H]4CC[C@@H](C3)N4)nc(OC[C@@]34CCCN3C[C@H](F)C4)nc2c1F [Example 76, 4-((1R,5S)-3,8-diazabicyclo[3.2. 1]octan-3-yl)-6-chloro-7-(1,6-dimethyl-1H-indazol-7-yl)-8-fluoro-2-(((2R,7aS)-2-fluorotetrahydro-1H-pyrrolizin-7a(5H)-yl)methoxy) quinazoline] | 0.674 | 0.01 | 0.008 | 0.191
9 | Oc1cc(-c2ccc3c(N4C[C@H]5CC[C@@H](C4)N5)nc(OC[C@@]45CCCN4C[C@H](F)C5)nc3c2)c2c(F)c(F)ccc2c1 [Example 77, 4-(4-((1R,5S)-3,8-diazabicyclo[3.2. 1]octan-3-yl)-2-(((2R,7aS)-2-fluorotetrahydro-1H-pyrrolizin-7a(5H)-yl)methoxy)quinazolin-7-yl)-5,6-difluoronaphthalen-2-ol] | 0.062 | 0.003 | 0.002 | 0.038
10 | Fc1c(-c2cc(Cl)cc3ccccc23)c(Cl)cc2c(N3C[C@H]4CC[C@@H](C3)N4)nc(OC[C@@]34CCCN3C[C@H](F)C4)nc12 [Example 78, 4-((1R,5S)-3,8-diazabicyclo[3.2. 1]octan-3-yl)-6-chloro-7-(3-chloronaphthalen-1-yl)-8-fluoro-2-(((2R,7aS)-2-fluorotetrahydro-1H-pyrrolizin-7a(5H)-yl)methoxy) quinazoline] | 6.03 | 0.226 | 0.090 | > 10
11 | Fc1c(-c2ccc(Cl)c3ccccc23)c(Cl)cc2c(N3C[C@H]4CC[C@@H](C3)N4)nc(OC[C@@]34CCCN3C[C@H](F)C4)nc12 [Example 79, 4-((1R,5S)-3,8-diazabicyclo[3.2. 1]octan-3-yl)-6-chloro-7-(4-chloronaphthalen-1-yl)-8-fluoro-2-(((2R,7aS)-2-fluorotetrahydro-1H-pyrrolizin-7a(5H)-yl)methoxy) quinazoline] | 3.43 | 0.026 | 0.026 | > 10
12 | Oc1ccc(-c2c(Cl)cc3c(N4C[C@H]5CC[C@@H](C4)N5)nc(OC[C@@]45CCCN4C[C@H](F)C5)nc3c2F)c2ccccc12 [Example 80, 4-(4-((1R,5S)-3,8-diazabicyclo[3.2. 1]octan-3-yl)-6-chloro-8-fluoro-2-(((2R,7aS)-2-fluorotetrahydro-1H-pyrrolizin-7a(5H)-yl)methoxy)quinazolin-7-yl)naphthalen-1-ol] | 0.607 | 0.01 | 0.004 | 0.649
13 | Oc1cc(-c2c(Cl)cc3c(N4C[C@H]5CC[C@@H](C4)N5)nc(OC[C@@]45CCCN4C[C@H](F)C5)nc3c2F)c2c(F)c(F)ccc2c1 [Example 81, 4-(4-((1R,5S)-3,8-diazabicyclo[3.2. 1]octan-3-yl)-6-chloro-8-fluoro-2-(((2R,7aS)-2-fluorotetrahydro-1H-pyrrolizin-7a(5H)-yl)methoxy)quinazolin-7-yl)-5,6-difluoronaphthalen-2-ol] | 0.099 | 0.003 | 0.004 | 0.03
14 | Oc1cc(-c2cc3nc(OC[C@@]45CCCN4C[C@H](F)C5)nc(N4C[C@H]5CC[C@@H](C4)N5)c3cc2F)c2c(F)c(F)ccc2c1 [Example 82, 4-(4-((1R,5S)-3,8-diazabicyclo[3.2. 1]octan-3-yl)-6-fluoro-2-(((2R,7aS)-2-fluorotetrahydro-1H-pyrrolizin-7a(5H)-yl)methoxy)quinazolin-7-yl)-5,6-difluoronaphthalen-2-ol] | 0.138 | 0.002 | 0.002 | 0.042
15 | CCc1c(F)ccc2cc(O)cc(-c3cc4nc(OC[C@@]56CCCN5C[C@H](F)C6)nc(N5C[C@H]6CC[C@@H](C5)N6)c4cc3F)c12 [Example 83, 4-(4-((1R,5S)-3,8-diazabicyclo[3.2. 1]octan-3-yl)-6-fluoro-2-(((2R,7aS)-2-fluorotetrahydro-1H-pyrrolizin-7a(5H)-yl)methoxy)quinazolin-7-yl)-5-ethyl-6-fluoronaphthalen-2-ol] | 0.077 | 0.003 | 0.002 | 0.028
16 | Oc1cc(-c2c(F)cc3c(N4C[C@H]5CC[C@@H](C4)N5)nc(OC[C@@]45CCCN4C[C@H](F)C5)nc3c2F)c2c(F)c(F)ccc2c1 [Example 84, 4-(4-((1R,5S)-3,8-diazabicyclo[3.2. 1]octan-3-yl)-6,8-difluoro-2-(((2R,7aS)-2-fluorotetrahydro-1H-pyrrolizin-7a(5H)-yl)methoxy)quinazolin-7-yl)-5,6-difluoronaphthalen-2-ol] | 0.022 | 0.004 | 0.004 | 0.005
17 | Oc1cc(-c2cc3nc(OC[C@@]45CCCN4C[C@H](F)C5)nc(N4C[C@H]5CC[C@@H](C4)N5)c3cc2F)c2c(Cl)cccc2c1 [Example 85, 4-(4-((1R,5S)-3,8-diazabicyclo[3.2. 1]octan-3-yl)-6-fluoro-2-(((2R,7aS)-2-fluorotetrahydro-1H-pyrrolizin-7a(5H)-yl)methoxy)quinazolin-7-yl)-5-chloronaphthalen-2-ol] | 0.273 | 0.004 | 0.001 | 0.064
